The supplement of paper PMC10307832

Assays:
Assay in all cases: relative viability (nuclei count vs DMSO), 5 days (fraction); higher = more cells survive
[1] = compound: COc1cc(-c2nn([C@H]3CC[C@H](N4CCN(C(C)=O)CC4)CC3)c3ncnc(N)c23)ccc1NC(=O)c1cc2ccccc2n1C + C[C@@H](Oc1cc(-c2cnn(C3CCNCC3)c2)cnc1N)c1c(Cl)ccc(F)c1Cl [Crizotinib] (partner 1 µM)
In short: (§1)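 Relative viability divides the nuclei count in treated wells by that in vehicle wells. Lung cancer cell lines were seeded in 1536-well plates, dosed by pin tool the next day, and fixed and stained after 5 days in one step with final 0.05% Triton X-100, 1% formaldehyde and 1 ug/ml Hoechst. Dosing was a single drug or a fixed anchor-drug dose plus five library-drug doses (not always all listed) in √10 steps, and values are medians of duplicate plates imaged at 4×.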

[2] = compound: COc1cc(-c2nn([C@H]3CC[C@H](N4CCN(C(C)=O)CC4)CC3)c3ncnc(N)c23)ccc1NC(=O)c1cc2ccccc2n1C + Nc1nc2[nH]cc(CCc3ccc(C(=O)N[C@@H](CCC(=O)O)C(=O)O)cc3)c2c(=O)[nH]1 [Pemetrexed] (partner 0.2 µM)
In short: as §1

[3] = compound: COc1cc(-c2nn([C@H]3CC[C@H](N4CCN(C(C)=O)CC4)CC3)c3ncnc(N)c23)ccc1NC(=O)c1cc2ccccc2n1C + O=C(c1cc(Cc2n[nH]c(=O)c3ccccc23)ccc1F)N1CCN(C(=O)C2CC2)CC1 [Olaparib] (partner 8 µM)
In short: as §1

[4] = compound: CO[C@@H]1[C@H](N(C)C(=O)c2ccccc2)C[C@H]2O[C@]1(C)n1c3ccccc3c3c4c(c5c6ccccc6n2c5c31)C(=O)NC4 [Midostaurin] + C[C@]1(O)C[C@@H](c2nc(-c3ccc4ccc(-c5ccccc5)nc4c3)c3c(N)nccn32)C1 [Linsitinib] (partner 1 µM)
In short: as §1

[5] = compound: COc1cc(-c2nn([C@H]3CC[C@H](N4CCN(C(C)=O)CC4)CC3)c3ncnc(N)c23)ccc1NC(=O)c1cc2ccccc2n1C + COc1cccc2cc(-c3nc([C@H]4CC[C@H](C(=O)O)CC4)n4ncnc(N)c34)[nH]c12 [OSI-027] (partner 0.5 µM)
In short: as §1

Cell Line	relative viability ([1]; first compound 0.0128 µM)	relative viability ([1]; first compound 0.04048 µM)	relative viability ([1]; first compound 0.128 µM)	relative viability ([1]; first compound 1.28 µM)	relative viability ([2]; first compound 0.0128 µM)	relative viability ([2]; first compound 0.04048 µM)	relative viability ([2]; first compound 0.128 µM)	relative viability ([2]; first compound 1.28 µM)	relative viability ([3]; first compound 0.0128 µM)	relative viability ([3]; first compound 0.04048 µM)	relative viability ([3]; first compound 0.128 µM)	relative viability ([3]; first compound 1.28 µM)	relative viability ([4]; first compound 0.01 µM)	relative viability ([4]; first compound 0.03162 µM)	relative viability ([4]; first compound 0.1 µM)	relative viability ([4]; first compound 0.3162 µM)	relative viability ([5]; first compound 0.0128 µM)	relative viability ([5]; first compound 0.04048 µM)	relative viability ([5]; first compound 0.128 µM)	relative viability ([5]; first compound 1.28 µM)
NCI-H358	0.563	0.619	0.586	0.368	0.188	0.187	0.173	0.166	0.587	0.513	0.526	0.374	0.818	0.607	0.813	0.599	0.645	0.618	0.508	0.28
PC-3 [JPC-3]	1.05	1.09	0.968	1.08	0.971	1.15	1.02	1.15	1.15	1.35	1.08	1.24	0.913	0.862	0.925	0.934	0.817	0.817	0.77	0.771
NCI-H2228	0.426	0.489	0.428	0.276	0.362	0.348	0.31	0.322	0.711	0.948	0.567	0.459	0.731	0.879	0.828	0.679	0.706	0.637	0.573	0.45
HOP-62	0.887	0.957	0.803	0.714	0.382	0.332	0.289	0.387	0.657	0.533	0.366	0.478	1.1	0.911	0.938	0.995	0.86	0.734	0.817	0.707
HARA	1.02	1.1	0.914	0.623	0.213	0.233	0.216	0.184	0.873	0.923	0.78	0.445	0.936	0.979	0.877	0.969	0.489	0.312	0.482	0.248
NCI-H838	0.809	0.854	0.759	0.534	0.254	0.262	0.224	0.221	0.799	0.807	0.741	0.471	1.01	0.828	0.739	0.367	0.38	0.375	0.422	0.359
NCI-H1755	1	0.795	0.875	0.616	0.438	0.43	0.577	0.57	0.888	0.922	0.832	0.863	0.97	0.923	0.865	0.692	0.829	0.644	0.676	0.662
